Assay results taken from the NIST ThermoML archive (doi:10.1016/j.jct.2015.12.025).

What was measured:
[1] = xn = mol fraction of the nth substance listed; conditions: 102 kPa, Liquid, Vibrating tube method
[2] = refractive index (Na D-line) (dimensionless); xn = mol fraction of the nth substance listed; conditions: 102 kPa, Liquid, Standard Abbe refractometry

C[Si]1(CCC(F)(F)F)O[Si](C)(CCC(F)(F)F)O[Si](C)(CCC(F)(F)F)O1 (stereo not given) + O=[N+]([O-])c1ccccc1
Conditions	mass density, 308.15 K [kg/m3]	mass density, 313.15 K [kg/m3]	mass density, 318.15 K [kg/m3]	mass density, 323.15 K [kg/m3]	refractive index, 308.15 K	refractive index, 313.15 K	refractive index, 318.15 K	refractive index, 323.15 K
[1], x1 = 0.05	1199.58	1194.53	1189.25	1184.09	–	–	–	–
[1], x1 = 0.0999	1207.93	1202.66	1197.26	1191.9	–	–	–	–
[1], x1 = 0.1499	1214.25	1208.83	1203.23	1197.73	–	–	–	–
[1], x1 = 0.1919	1218.36	1212.79	1207.17	1201.58	–	–	–	–
[1], x1 = 0.2499	1222.85	1217.11	1211.37	1205.62	–	–	–	–
[1], x1 = 0.2999	1225.81	1220.01	1214.12	1208.26	–	–	–	–
[1], x1 = 0.3501	1228.12	1222.19	1216.28	1210.32	–	–	–	–
[1], x1 = 0.3999	1229.99	1224	1218.01	1211.97	–	–	–	–
[1], x1 = 0.4499	1231.5	1225.36	1219.29	1213.19	–	–	–	–
[1], x1 = 0.5008	1232.67	1226.56	1220.4	1214.21	–	–	–	–
[1], x1 = 0.55	1233.65	1227.39	1221.21	1215	–	–	–	–
[1], x1 = 0.6001	1234.37	1228.07	1221.84	1215.54	–	–	–	–
[1], x1 = 0.6501	1234.9	1228.58	1222.33	1216	–	–	–	–
[1], x1 = 0.6997	1235.32	1229.04	1222.69	1216.31	–	–	–	–
[1], x1 = 0.75	1235.76	1229.34	1222.98	1216.56	–	–	–	–
[1], x1 = 0.8002	1236.01	1229.55	1223.17	1216.72	–	–	–	–
[1], x1 = 0.8498	1236.19	1229.72	1223.28	1216.78	–	–	–	–
[1], x1 = 0.9002	1236.26	1229.82	1223.34	1216.83	–	–	–	–
[1], x1 = 0.9492	1236.47	1229.88	1223.44	1216.88	–	–	–	–
[1], x1 = 1	1236.63	1230.05	1223.55	1216.99	–	–	–	–
[2], x1 = 0.05	–	–	–	–	1.51601	1.51362	1.51123	1.50882
[2], x1 = 0.0999	–	–	–	–	1.49288	1.49054	1.48816	1.48586
[2], x1 = 0.1499	–	–	–	–	1.47398	1.47168	1.46935	1.46705
[2], x1 = 0.1919	–	–	–	–	1.46058	1.4583	1.45605	1.45377
[2], x1 = 0.2499	–	–	–	–	1.44494	1.4427	1.44048	1.43827
[2], x1 = 0.2999	–	–	–	–	1.43355	1.43137	1.42916	1.42695
[2], x1 = 0.3501	–	–	–	–	1.42369	1.42151	1.41931	1.41713
[2], x1 = 0.3999	–	–	–	–	1.41513	1.41296	1.41082	1.40865
[2], x1 = 0.4499	–	–	–	–	1.40755	1.4054	1.40325	1.40109
[2], x1 = 0.5008	–	–	–	–	1.4007	1.39858	1.39644	1.39433
[2], x1 = 0.55	–	–	–	–	1.39478	1.3927	1.39053	1.38845
[2], x1 = 0.6001	–	–	–	–	1.38938	1.38728	1.38519	1.3831
[2], x1 = 0.6501	–	–	–	–	1.38448	1.38239	1.38032	1.37824
[2], x1 = 0.6997	–	–	–	–	1.38006	1.378	1.37594	1.37384
[2], x1 = 0.75	–	–	–	–	1.376	1.37391	1.37188	1.36984
[2], x1 = 0.8002	–	–	–	–	1.37227	1.37021	1.36817	1.36612
[2], x1 = 0.8498	–	–	–	–	1.36887	1.36681	1.36478	1.36274
[2], x1 = 0.9002	–	–	–	–	1.36567	1.36365	1.36163	1.35959
[2], x1 = 0.9492	–	–	–	–	1.36284	1.36084	1.35878	1.35679
[2], x1 = 1	–	–	–	–	1.36011	1.35808	1.35609	1.35407

CC(C)(C)c1ccccc1 [(1,1-dimethylethyl)benzene] + C[Si]1(CCC(F)(F)F)O[Si](C)(CCC(F)(F)F)O[Si](C)(CCC(F)(F)F)O1
Conditions	mass density, 308.15 K [kg/m3]	mass density, 313.15 K [kg/m3]	mass density, 318.15 K [kg/m3]	mass density, 323.15 K [kg/m3]	refractive index, 308.15 K	refractive index, 313.15 K	refractive index, 318.15 K	refractive index, 323.15 K
[1], x2 = 0	854.12	849.98	845.87	841.72	–	–	–	–
[1], x2 = 0.0476	894.32	889.93	885.61	881.21	–	–	–	–
[1], x2 = 0.1	933.32	928.72	924.21	919.56	–	–	–	–
[1], x2 = 0.15	966.19	961.47	956.76	951.94	–	–	–	–
[1], x2 = 0.2	995.76	990.72	985.86	980.83	–	–	–	–
[1], x2 = 0.25	1022.23	1017.01	1012	1006.81	–	–	–	–
[1], x2 = 0.2999	1046.09	1040.82	1035.68	1030.38	–	–	–	–
[1], x2 = 0.3499	1067.85	1062.39	1057.13	1051.7	–	–	–	–
[1], x2 = 0.3999	1087.64	1082.11	1076.69	1071.16	–	–	–	–
[1], x2 = 0.45	1105.84	1100.2	1094.66	1089.02	–	–	–	–
[1], x2 = 0.5	1122.55	1116.79	1111.16	1105.4	–	–	–	–
[1], x2 = 0.5498	1137.88	1132.05	1126.36	1120.47	–	–	–	–
[1], x2 = 0.6	1152.22	1146.28	1140.41	1134.47	–	–	–	–
[1], x2 = 0.6499	1165.5	1159.37	1153.46	1147.45	–	–	–	–
[1], x2 = 0.7001	1177.76	1171.65	1165.58	1159.5	–	–	–	–
[1], x2 = 0.75	1189.19	1183.03	1176.83	1170.74	–	–	–	–
[1], x2 = 0.7995	1199.87	1193.61	1187.3	1181.13	–	–	–	–
[1], x2 = 0.8499	1209.99	1203.62	1197.27	1190.93	–	–	–	–
[1], x2 = 0.8954	1218.66	1212.17	1205.76	1199.34	–	–	–	–
[1], x2 = 0.9485	1228.1	1221.55	1215.06	1208.56	–	–	–	–
[2], x2 = 0	–	–	–	–	1.48509	1.48256	1.48007	1.47754
[2], x2 = 0.0476	–	–	–	–	1.47051	1.46805	1.4656	1.46312
[2], x2 = 0.1	–	–	–	–	1.45684	1.45441	1.452	1.4496
[2], x2 = 0.15	–	–	–	–	1.44555	1.44313	1.44079	1.4384
[2], x2 = 0.2	–	–	–	–	1.4356	1.43327	1.43091	1.42856
[2], x2 = 0.25	–	–	–	–	1.42681	1.4245	1.42218	1.41985
[2], x2 = 0.2999	–	–	–	–	1.41901	1.41671	1.41444	1.41212
[2], x2 = 0.3499	–	–	–	–	1.41199	1.40972	1.40747	1.40521
[2], x2 = 0.3999	–	–	–	–	1.40568	1.40344	1.4012	1.39899
[2], x2 = 0.45	–	–	–	–	1.39992	1.3977	1.39552	1.3933
[2], x2 = 0.5	–	–	–	–	1.39466	1.39251	1.39033	1.38813
[2], x2 = 0.5498	–	–	–	–	1.38992	1.38774	1.38566	1.3834
[2], x2 = 0.6	–	–	–	–	1.38555	1.38337	1.38127	1.37906
[2], x2 = 0.6499	–	–	–	–	1.38151	1.37934	1.37726	1.37512
[2], x2 = 0.7001	–	–	–	–	1.37773	1.37562	1.37352	1.37141
[2], x2 = 0.75	–	–	–	–	1.37427	1.3722	1.3701	1.36801
[2], x2 = 0.7995	–	–	–	–	1.37106	1.36902	1.36693	1.36485
[2], x2 = 0.8499	–	–	–	–	1.36804	1.36599	1.36394	1.36193
[2], x2 = 0.8954	–	–	–	–	1.36548	1.36342	1.36142	1.35939
[2], x2 = 0.9485	–	–	–	–	1.36268	1.36065	1.35863	1.35667
